{
  "source": "patent US20020086885A1",
  "about": "“Pharmaceutical composition” (priority 1998, published 2002)",
  "key": {"[1]": {"system": "obese, diabetic KKA^y mice", "conditions": "cited from earlier work"}, "[2]": {"system": "noninsulin-dependent diabetic mellitus (NIDDM) patients", "experiment": "Concomitant administration of pioglitazone hydrochloride and mazindol in NIDDM patients", "format": "in vivo, human", "description": "Effects of concomitant administration of pioglitazone hydrochloride and mazindol in noninsulin-dependent diabetic mellitus (NIDDM) patients were studied."}, "[3]": {"system": "obese rats", "conditions": "given together with troglitazone; cited from earlier work"}},
  "note": "Where a name gives a salt, the structure may show the parent alone.",
  "data": [
    {"smiles": "N=C(N)NCCC(=O)O", "note": "[3-Guanidinopropionic acid]", "values": [
      {"measurement": "weight gain in mice treated with pioglitazone hydrochloride", "setting": "[1]", "result": "antagonizes in a dose-dependent manner"}
    ]},
    {"smiles": "CCc1ccc(CCOc2ccc(CC3SC(=O)NC3=O)cc2)nc1", "note": "(stereo not shown) [pioglitazone hydrochloride, 5-[4-[2-(5-ethyl-2-pyridyl)ethoxy]benzyl]-2,4-thiazolidinedione]", "values": [
      {"measurement": "body weight increased by", "setting": "[2]; NIDDM patients, pioglitazone hydrochloride alone 45 mg/day oral, 12±2 weeks, means±standard deviation of 50 samples", "result": "0.72 ± 2.06", "unit": "kg"}
    ]},
    {"smiles": "C[C@H](Cc1ccc2c(c1)OC(C(=O)[O-])(C(=O)[O-])O2)NC[C@H](O)c1cccc(Cl)c1.[Na+].[Na+]", "note": "[CL316243]", "values": [
      {"measurement": "weight gain in brown adipose tissues caused by troglitazone", "setting": "[3]", "result": "completely inhibited"}
    ]},
    {"smiles": "OC1(c2ccc(Cl)cc2)c2ccccc2C2=NCCN21", "note": "(stereo not shown) [mazindol]", "values": [
      {"measurement": "body weight change", "setting": "[2]; one NIDDM patient, mazindol 0.5 mg/day oral with placebo, 12 weeks, baseline 60.0 kg", "result": 0.00, "unit": "kg"}
    ]}
  ]
}
